Assay results as given in PubChem BioAssay AID330 (DTP/NCI, 2004).
“And” between values parts separate entries of the source, which are not always exact repeats. Equal values may be shown once. Toxic doses and inconclusive results are not listed.

Test system: P388 leukemia ip, CD2F1 mice, survival T/C
Assay: NCI In Vivo Anticancer Drug Screen. Data for tumor model P388 Leukemia (intraperitoneal) in CD2F1 (CDF1) mice
Conditions: endpoint: median survival time, higher = longer survival
Procedure, shortened: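 Mice carrying the transplanted tumor received test compound or vehicle. Survival was recorded in each group, and the value is the treated-group measurement divided by that of the vehicle-treated control group.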

[1] = dose: 50.0 mg/kg/injection, schedule: Q01DX005 (ip), vehicle: saline
[2] = dose: 100.0 mg/kg/injection, schedule: Q01DX005 (ip), vehicle: saline
[3] = dose: 200.0 mg/kg/injection, schedule: Q01DX005 (ip), vehicle: saline
[4] = dose: 12.5 mg/kg/injection, schedule: Q01DX009 (ip), vehicle: Klucel (hydroxypropylcellulose) (HPC)
[5] = dose: 25.0 mg/kg/injection, schedule: Q01DX009 (ip), vehicle: Klucel (hydroxypropylcellulose) (HPC)
[6] = dose: 50.0 mg/kg/injection, schedule: Q01DX009 (ip), vehicle: Klucel (hydroxypropylcellulose) (HPC)
[7] = dose: 100.0 mg/kg/injection, schedule: Q01DX009 (ip), vehicle: Klucel (hydroxypropylcellulose) (HPC)
[8] = dose: 12.5 mg/kg/injection, schedule: Q01DX005 (ip), vehicle: Klucel (hydroxypropylcellulose) (HPC)
[9] = dose: 25.0 mg/kg/injection, schedule: Q01DX005 (ip), vehicle: Klucel (hydroxypropylcellulose) (HPC)
[10] = dose: 60.0 mg/kg/injection, schedule: Q01DX005 (ip), vehicle: saline with Tween-80
[11] = dose: 120.0 mg/kg/injection, schedule: Q01DX005 (ip), vehicle: saline with Tween-80
[12] = dose: 240.0 mg/kg/injection, schedule: Q01DX005 (ip), vehicle: saline with Tween-80
[13] = dose: 25.0 mg/kg/injection, schedule: Q01DX009 (ip), vehicle: water
[14] = dose: 50.0 mg/kg/injection, schedule: Q01DX009 (ip), vehicle: water
[15] = dose: 100.0 mg/kg/injection, schedule: Q01DX009 (ip), vehicle: water
[16] = dose: 6.25 mg/kg/injection, schedule: Q01DX005 (ip), vehicle: Klucel (hydroxypropylcellulose) (HPC)
[17] = dose: 50.0 mg/kg/injection, schedule: Q01DX005 (ip), vehicle: saline with Tween-80
[18] = dose: 50.0 mg/kg/injection, schedule: Q01DX009 (ip), vehicle: saline with Tween-80
[19] = dose: 100.0 mg/kg/injection, schedule: Q01DX009 (ip), vehicle: saline with Tween-80

For `CC(=O)C1OC1c1ccccn1` (configuration not stated), the T/C (dose: 25.0 mg/kg/injection, schedule: Q01DX005 (ip), vehicle: saline) was 102 % of control, the T/C (dose: 25.0 mg/kg/injection, schedule: Q01DX005 (ip), vehicle: suspension in saline) was 103 % of control and the T/C [1] was 102 % of control. For the same molecule, the T/C (dose: 50.0 mg/kg/injection, schedule: Q01DX005 (ip), vehicle: suspension in saline) was 100 % of control, the T/C [2] was 104 % of control and the T/C (dose: 100.0 mg/kg/injection, schedule: Q01DX005 (ip), vehicle: suspension in saline) was 110 % of control. For the same molecule, the T/C [3] was 102 % of control and the T/C (dose: 200.0 mg/kg/injection, schedule: Q01DX005 (ip), vehicle: suspension in saline) was 100 % of control.
For `O=C(O)c1ccc2c3c(ncnc13)-c1ccccc1C2=O`, the T/C (dose: 6.25 mg/kg/injection, schedule: Q01DX009 (ip), vehicle: Klucel (hydroxypropylcellulose) (HPC)) was 103 % of control, the T/C [4] was 111 % of control and 96 % of control and the T/C [5] was 112 % of control and 96 % of control. For the same molecule, the T/C [6] was 105 % of control and 109 % of control and 111 % of control, the T/C [7] was 100 % of control and the T/C (dose: 200.0 mg/kg/injection, schedule: Q01DX009 (ip), vehicle: Klucel (hydroxypropylcellulose) (HPC)) was 109 % of control.
`CC1=C(N2CCOCC2)C(N2CCOCC2)=C(C)C(=O)C1=O` was tested, and the T/C [8] was 108 % of control, the T/C [9] was 101 % of control and the T/C (dose: 50.0 mg/kg/injection, schedule: Q01DX005 (ip), vehicle: Klucel (hydroxypropylcellulose) (HPC)) was 108 % of control. For the same molecule, the T/C (dose: 100.0 mg/kg/injection, schedule: Q01DX005 (ip), vehicle: Klucel (hydroxypropylcellulose) (HPC)) was 97 % of control and the T/C (dose: 200.0 mg/kg/injection, schedule: Q01DX005 (ip), vehicle: Klucel (hydroxypropylcellulose) (HPC)) was 96 % of control.
With `C[CH2][Sn](=[O])[CH2]C` the T/C (dose: 25.0 mg/kg/injection, schedule: Q01DX009 (ip), vehicle: saline) was 154 % of control.
For `O=C1CSC(c2cc(F)ccc2F)N1c1nncs1` (configuration not stated), the T/C [10] was 107 % of control, the T/C [11] was 109 % of control and the T/C [12] was 104 % of control.
With `CC(C)CC(N)C(=O)NCCC(=O)O` (configuration not stated) the T/C [1] was 101 % of control, the T/C [2] was 101 % of control and the T/C [3] was 100 % of control.
`Cn1c2ccccc2c2nnc(N/N=C/c3ccc(Cl)cc3)nc21` was tested, and the T/C (dose: 100.0 mg/kg/injection, schedule: Q04DX002 (ip), vehicle: saline with Tween-80) was 88 % of control, the T/C (dose: 200.0 mg/kg/injection, schedule: Q04DX002 (ip), vehicle: saline with Tween-80) was 87 % of control and the T/C (dose: 400.0 mg/kg/injection, schedule: Q04DX002 (ip), vehicle: saline with Tween-80) was 98 % of control.
In the case of `COc1cccc(C(O)c2ccncc2)c1OC` (configuration not stated), the T/C [13] is reported as 90 % of control, the T/C [14] is reported as 90 % of control and the T/C [15] is reported as 93 % of control. The T/C (dose: 200.0 mg/kg/injection, schedule: Q01DX009 (ip), vehicle: water) was 90 % of control.
`CC1=C(CCC(C)NCc2ccc(OCCCN3CCCCC3)cc2)C(C)(C)CCC1` (configuration not stated) was tested, and the T/C [16] was 104 % of control, the T/C [8] was 98 % of control and the T/C [9] was 104 % of control.
In the case of `C(=N\NC1=NCCN1)/c1ccc(-c2cn3cc(/C=N/NC4=NCCN4)ccc3n2)cc1`, the T/C [10] is reported as 112 % of control.
In the case of `CN1CCCN(C)C1c1cc([N+](=O)[O-])ccc1O`, the T/C (dose: 6.25 mg/kg/injection, schedule: Q01DX009 (ip), vehicle: saline sonified) is reported as 100 % of control, the T/C (dose: 12.5 mg/kg/injection, schedule: Q01DX009 (ip), vehicle: saline sonified) is reported as 100 % of control and the T/C (dose: 25.0 mg/kg/injection, schedule: Q01DX009 (ip), vehicle: saline sonified) is reported as 100 % of control.
`BrCCC1CO1` (configuration not stated) was tested, and the T/C (dose: 50.0 mg/kg/injection, schedule: Q01DX009 (ip), vehicle: saline) was 98 % of control, the T/C (dose: 100.0 mg/kg/injection, schedule: Q01DX009 (ip), vehicle: saline) was 100 % of control and the T/C (dose: 200.0 mg/kg/injection, schedule: Q01DX009 (ip), vehicle: saline) was 117 % of control.
In the case of `Cc1ccc(S(=O)(=O)CC(=O)CC(=O)C(=O)NC2C3CC4CC(C3)CC2C4)cc1` (configuration not stated), the T/C [17] is reported as 98 % of control, the T/C (dose: 100.0 mg/kg/injection, schedule: Q01DX005 (ip), vehicle: saline with Tween-80) is reported as 90 % of control and the T/C (dose: 200.0 mg/kg/injection, schedule: Q01DX005 (ip), vehicle: saline with Tween-80) is reported as 90 % of control.
`N#CC(C(=O)C(=O)Nc1ccc(Cl)c(Cl)c1)c1ccccc1` (configuration not stated) was tested, and the T/C [10] was 100 % of control and the T/C [11] was 99 % of control.
With `CC1=CC(C)(O)C=C(C)C1=O` the T/C (dose: 3.13 mg/kg/injection, schedule: Q01DX009 (ip), vehicle: water) was 105 % of control, the T/C (dose: 6.25 mg/kg/injection, schedule: Q01DX009 (ip), vehicle: water) was 97 % of control and the T/C (dose: 12.5 mg/kg/injection, schedule: Q01DX009 (ip), vehicle: water) was 96 % of control. The T/C [13] was 100 % of control, the T/C [14] was 99 % of control and the T/C [15] was 98 % of control.
`Nc1cc2cc([N+](=O)[O-])ccc2oc1=O` was tested, and the T/C (dose: 50.0 mg/kg/injection, schedule: Q01DX005 (ip), vehicle: Klucel + Tween-80) was 96 % of control, the T/C (dose: 100.0 mg/kg/injection, schedule: Q01DX005 (ip), vehicle: Klucel + Tween-80) was 90 % of control and the T/C (dose: 200.0 mg/kg/injection, schedule: Q01DX005 (ip), vehicle: Klucel + Tween-80) was 87 % of control.
With `CC(C)(C)SC(=S)SCC(=O)c1ccc(F)cc1` the T/C [10] was 102 % of control, the T/C [11] was 103 % of control and the T/C [12] was 102 % of control.
With `O=C1C(N=Nc2ccc(S(=O)(=O)Nc3ccccn3)cc2)C(=O)N(c2ccc(Cl)cc2)C(=S)N1c1ccc(Cl)cc1` the T/C [1] was 105 % of control, the T/C [2] was 114 % of control and the T/C [3] was 112 % of control.
With `Cc1ccc(N=C2c3ccccc3-c3ccc(NC(=O)c4ccccc4)cc32)cc1` the T/C (dose: 3.12 mg/kg/injection, schedule: Q01DX005 (ip), vehicle: saline with Tween-80) was 93 % of control, the T/C (dose: 6.25 mg/kg/injection, schedule: Q01DX005 (ip), vehicle: saline with Tween-80) was 93 % of control and the T/C (dose: 12.5 mg/kg/injection, schedule: Q01DX005 (ip), vehicle: saline with Tween-80) was 86 % of control. For the same molecule, the T/C [17] was 86 % of control.
`C=CC(=NC(C)(C)C)Nc1ccccc1OC` was tested, and the T/C (dose: 1.56 mg/kg/injection, schedule: Q01DX009 (ip), vehicle: saline) was 99 % of control and 89 % of control, the T/C (dose: 3.12 mg/kg/injection, schedule: Q01DX005 (ip), vehicle: Klucel (hydroxypropylcellulose) (HPC)) was 117 % of control and the T/C (dose: 3.12 mg/kg/injection, schedule: Q01DX009 (ip), vehicle: saline) was 111 % of control and 86 % of control and 98 % of control. For the same molecule, the T/C [16] was 117 % of control, the T/C (dose: 6.25 mg/kg/injection, schedule: Q01DX009 (ip), vehicle: saline) was 102 % of control and 120 % of control and 95 % of control and the T/C [8] was 114 % of control.
`CCC[CH2][Sn]([CH2]CCN(C)C)([CH2]CCN(C)C)[CH2]CCN(C)C` was tested, and the T/C [18] was 100 % of control and the T/C [19] was 107 % of control.
For `CC#CC#C/C=C1/C=CC2(CC=CO2)O1` (configuration not stated), the T/C [4] was 107 % of control, the T/C [5] was 106 % of control and the T/C [6] was 111 % of control. The T/C [7] was 114 % of control.
With `CC(C)(C)SC(=S)SCC(=O)c1ccc(Cl)cc1` the T/C [10] was 99 % of control, the T/C [11] was 98 % of control and the T/C [12] was 100 % of control.
`O=C1NC(=O)C(=NC2C(=O)NC(=O)NC2=O)C(=O)N1` was tested, and the T/C (dose: 30.0 mg/kg/injection, schedule: Q01DX005 (ip), vehicle: saline) was 96 % of control, the T/C (dose: 60.0 mg/kg/injection, schedule: Q01DX005 (ip), vehicle: saline) was 92 % of control and 95 % of control and the T/C (dose: 120.0 mg/kg/injection, schedule: Q01DX005 (ip), vehicle: saline) was 92 % of control. For the same molecule, the T/C (dose: 240.0 mg/kg/injection, schedule: Q01DX005 (ip), vehicle: saline) was 86 % of control.
With `Cc1cccc(Nc2ncnc3c2c(=O)n(C)c(=O)n3C)c1` the T/C (dose: 15.0 mg/kg/injection, schedule: Q01DX005 (ip), vehicle: saline with Tween-80) was 91 % of control, the T/C (dose: 30.0 mg/kg/injection, schedule: Q01DX005 (ip), vehicle: saline with Tween-80) was 94 % of control and the T/C [10] was 86 % of control.
For `O=C(c1ccc(Cl)cc1)c1nnc(Cl)s1`, the T/C [18] was 110 % of control, the T/C [19] was 118 % of control and the T/C (dose: 200.0 mg/kg/injection, schedule: Q01DX009 (ip), vehicle: saline with Tween-80) was 101 % of control.
